Results published in ChEMBL document CHEMBL1153552, “Comparative in vitro pharmacodynamics of caspofungin, micafungin, and anidulafungin against germinated and nongerminated Aspergillus conidia” (2008).
Calls of active or inactive are those of the source. The calls are words filed in the database; no cut-off is given here. Numbered stars: 1 amine (or outer) side, 2 acyl side, 3 side chain; on linkers, the order of the positions; unused ones are H or OH. Bridge positions count the residues as written; N and C are the ends. Square brackets hold non-standard residues; d marks the D form. Peptide text beside a SMILES is read from it. * marks the point of attachment. hTyr(3S-OH,4S-OH,3'-OSO3H) = N[C@H](C(=O)O)[C@H](O)[C@@H](O)c1ccc(O)c(OS(=O)(=O)O)c1; Orn(4R-OH,5R-OH) = O=C([C@H](C[C@@H](O)[C@@H](O)N[*:3])N[*:1])[*:2]; Pro(3S-OH,4S-Me) = C[C@H]1CN[C@H](C(=O)O)[C@H]1O; X1 = CCCCCOc1ccc(-c2cc(-c3ccc(C(=O)*)cc3)no2)cc1; Gln(3R-OH) = NC(=O)C[C@@H](O)[C@H](N)C(=O)O; Hyp = O=C(O)[C@@H]1C[C@@H](O)CN1

Key:
Aspergillus fumigatus [1] = assay: Antifungal activity against nongerminated Aspergillus fumigatus assessed as absence of visual fungal growth at 64 ug/mL; format: functional, organism-based
Aspergillus terreus [2] = assay: Antifungal activity against nongerminated Aspergillus terreus assessed as absence of visual fungal growth at 128 ug/mL; format: functional, organism-based
Aspergillus terreus [3] = assay: Effect on Aspergillus terreus metabolic activity assessed number of twofold drug dilutions required for germinated fungal metabolic activity to nongerminated fungal metabolic activity; format: functional
Aspergillus flavus [4] = assay: Induction of maximal metabolic inhibition in germinated Aspergillus flavus assessed as minimal metabolic activity Ymin after 2 hrs by XTT assay; format: functional; design: scale not given: the % may be the effect or the level left
Aspergillus fumigatus [5] = assay: Antifungal activity against germinated Aspergillus fumigatus assessed as absence of visual fungal growth at 64 ug/mL; format: functional, organism-based
Aspergillus fumigatus [6] = assay: Antifungal activity against nongerminated Aspergillus fumigatus assessed as short, stubby and highly branched hyphae after 48 hrs by microscopy analysis; format: functional, organism-based
Aspergillus flavus [7] = assay: Effect on nongerminated Aspergillus flavus metabolic activity assessed as drug concentration at which fungal metabolic activity occurs after 2 hrs by XTT assay; format: functional
Aspergillus terreus [8] = assay: Antifungal activity against germinated Aspergillus terreus assessed as lowest drug concentration that produced short, stubby and highly branched hyphae after 48 hrs by microscopic analysis; format: functional; conditions: read-out: MEC
Aspergillus terreus [9] = assay: Induction of maximal metabolic inhibition in germinated Aspergillus terreus assessed as minimal metabolic activity Ymin after 2 hrs by XTT assay; format: functional; design: scale not given: the % may be the effect or the level left
Aspergillus fumigatus [10] = assay: Induction of maximal metabolic inhibition in nongerminated Aspergillus fumigatus assessed as minimal metabolic activity Ymin after 2 hrs by XTT assay; format: functional; design: scale not given: the % may be the effect or the level left
Aspergillus flavus [11] = assay: Antifungal activity against nongerminated Aspergillus flavus assessed as absence of visual fungal growth at 128 ug/mL; format: functional, organism-based
Aspergillus terreus [12] = assay: Antifungal activity against nongerminated Aspergillus terreus assessed as absence of visual fungal growth at 64 ug/mL; format: functional, organism-based
Aspergillus fumigatus [13] = assay: Induction of maximal metabolic inhibition in germinated Aspergillus fumigatus assessed as minimal metabolic activity Ymin after 2 hrs by XTT assay; format: functional; design: scale not given: the % may be the effect or the level left
Aspergillus fumigatus [14] = assay: Effect on germinated Aspergillus fumigatus metabolic activity assessed as drug concentration at which fungal metabolic activity occurs after 2 hrs by XTT assay; format: functional
Aspergillus fumigatus [15] = assay: Antifungal activity against nongerminated Aspergillus fumigatus assessed as absence of visual fungal growth at 128 ug/mL; format: functional, organism-based
Aspergillus terreus [16] = assay: Effect on nongerminated Aspergillus terreus metabolic activity assessed as drug concentration at which fungal metabolic activity occurs after 2 hrs by XTT assay; format: functional
Aspergillus terreus [17] = assay: Antifungal activity against germinated Aspergillus terreus assessed as absence of visual fungal growth at 128 ug/mL; format: functional, organism-based
Aspergillus flavus [18] = assay: Antifungal activity against nongerminated Aspergillus flavus assessed as lowest drug concentration that produced short, stubby and highly branched hyphae after 48 hrs by microscopic analysis; format: functional; conditions: read-out: MEC
Aspergillus flavus [19] = assay: Effect on germinated Aspergillus flavus metabolic activity assessed as drug concentration at which fungal metabolic activity occurs after 2 hrs by XTT assay; format: functional
Aspergillus terreus [20] = assay: Ratio of log2 of MEC for germinated Aspergillus terreus to log2 of MEC for nongerminated Aspergillus terreus; format: functional
Aspergillus flavus [21] = assay: Antifungal activity against germinated Aspergillus flavus assessed as absence of visual fungal growth at 128 ug/mL; format: functional, organism-based
Aspergillus flavus [22] = assay: Ratio of log2 of MEC for germinated Aspergillus flavus to log2 of MEC for nongerminated Aspergillus flavus; format: functional
Aspergillus flavus [23] = assay: Effect on Aspergillus flavus metabolic activity assessed number of twofold drug dilutions required for germinated fungal metabolic activity to nongerminated fungal metabolic activity; format: functional
Aspergillus fumigatus [24] = assay: Ratio of log2 of MEC for germinated Aspergillus fumigatus to log2 of MEC for nongerminated Aspergillus fumigatus; format: functional
Aspergillus fumigatus [25] = assay: Antifungal activity against germinated Aspergillus fumigatus assessed as lowest drug concentration that produced short, stubby and highly branched hyphae after 48 hrs by microscopic analysis; format: functional; conditions: read-out: MEC
Aspergillus fumigatus [26] = assay: Antifungal activity against nongerminated Aspergillus fumigatus assessed as lowest drug concentration that produced short, stubby and highly branched hyphae after 48 hrs by microscopic analysis; format: functional; conditions: read-out: MEC
Aspergillus flavus [27] = assay: Antifungal activity against nongerminated Aspergillus flavus assessed as absence of visual fungal growth at 64 ug/mL; format: functional, organism-based
Aspergillus flavus [28] = assay: Antifungal activity against germinated Aspergillus flavus assessed as absence of visual fungal growth at 64 ug/mL; format: functional, organism-based
Aspergillus terreus [29] = assay: Induction of maximal metabolic inhibition in nongerminated Aspergillus terreus assessed as minimal metabolic activity Ymin after 2 hrs by XTT assay; format: functional; design: scale not given: the % may be the effect or the level left
Aspergillus flavus [30] = assay: Induction of maximal metabolic inhibition in nongerminated Aspergillus flavus assessed as minimal metabolic activity Ymin after 2 hrs by XTT assay; format: functional; design: scale not given: the % may be the effect or the level left
Aspergillus terreus [31] = assay: Antifungal activity against germinated Aspergillus terreus assessed as absence of visual fungal growth at 64 ug/mL; format: functional, organism-based
Aspergillus fumigatus [32] = assay: Effect on Aspergillus fumigatus metabolic activity assessed number of twofold drug dilutions required for germinated fungal metabolic activity to nongerminated fungal metabolic activity; format: functional
Aspergillus flavus [33] = assay: Antifungal activity against germinated Aspergillus flavus assessed as lowest drug concentration that produced short, stubby and highly branched hyphae after 48 hrs by microscopic analysis; format: functional; conditions: read-out: MEC
Aspergillus fumigatus [34] = assay: Antifungal activity against germinated Aspergillus fumigatus assessed as absence of visual fungal growth at 128 ug/mL; format: functional, organism-based
Aspergillus fumigatus [35] = assay: Effect on nongerminated Aspergillus fumigatus metabolic activity assessed as drug concentration at which fungal metabolic activity occurs after 2 hrs by XTT assay; format: functional
Aspergillus terreus [36] = assay: Antifungal activity against nongerminated Aspergillus terreus assessed as lowest drug concentration that produced short, stubby and highly branched hyphae after 48 hrs by microscopic analysis; format: functional; conditions: read-out: MEC
Aspergillus terreus [37] = assay: Effect on germinated Aspergillus terreus metabolic activity assessed as drug concentration at which fungal metabolic activity occurs after 2 hrs by XTT assay; format: functional

CCCCCOc1ccc(-c2cc(-c3ccc(C(=O)N[C@H]4C[C@@H](O)[C@@H](O)NC(=O)[C@@H]5[C@@H](O)[C@@H](C)CN5C(=O)[C@H]([C@H](O)CC(N)=O)NC(=O)[C@H]([C@H](O)[C@@H](O)c5ccc(O)c(OS(=O)(=O)O)c5)NC(=O)[C@@H]5C[C@@H](O)CN5C(=O)[C@H]([C@@H](C)O)NC4=O)cc3)no2)cc1 [MICAFUNGIN] (X1-[Orn(4R-OH,5R-OH)]T[Hyp][hTyr(3S-OH,4S-OH,3'-OSO3H)][Gln(3R-OH)][Pro(3S-OH,4S-Me)]; lactam 1-C)
Activity (Aspergillus fumigatus [1]): inactive
Activity (Aspergillus terreus [2]): inactive
Ratio (Aspergillus terreus [3]): 2.04
Activity (Aspergillus flavus [4]): 20%
Activity (Aspergillus fumigatus [5]): inactive
Activity (Aspergillus fumigatus [6]): Active
EC5 (Aspergillus flavus [7]): 0.05 µg/mL
minimal effective concentration (Aspergillus terreus [8]): 0.25 µg/mL
Activity (Aspergillus terreus [9]): 37%
Activity (Aspergillus fumigatus [10]): 25%
Activity (Aspergillus flavus [11]): inactive
Activity (Aspergillus terreus [12]): inactive
Activity (Aspergillus fumigatus [13]): 29%
EC5 (Aspergillus fumigatus [14]): 0.05 µg/mL
Activity (Aspergillus fumigatus [15]): inactive
EC5 (Aspergillus terreus [16]): 0.07 µg/mL
Activity (Aspergillus terreus [17]): inactive
minimal effective concentration (Aspergillus flavus [18]): 0.12 µg/mL
EC5 (Aspergillus flavus [19]): 0.14 µg/mL
Ratio (Aspergillus terreus [20]): 1
Activity (Aspergillus flavus [21]): inactive
Ratio (Aspergillus flavus [22]): 2
Ratio (Aspergillus flavus [23]): 1.57
Ratio (Aspergillus fumigatus [24]): 1
minimal effective concentration (Aspergillus fumigatus [25]): 0.25 µg/mL
minimal effective concentration (Aspergillus fumigatus [26]): 0.06 µg/mL
Activity (Aspergillus flavus [27]): inactive
Activity (Aspergillus flavus [28]): inactive
Activity (Aspergillus terreus [29]): 29%
Activity (Aspergillus flavus [30]): 17%
Activity (Aspergillus terreus [31]): inactive
Ratio (Aspergillus fumigatus [32]): 0.67
minimal effective concentration (Aspergillus flavus [33]): 0.5 µg/mL
Activity (Aspergillus fumigatus [34]): inactive
EC5 (Aspergillus fumigatus [35]): 0.04 µg/mL
minimal effective concentration (Aspergillus terreus [36]): 0.12 µg/mL
EC5 (Aspergillus terreus [37]): 0.14 µg/mL
